Where “and” joins values, the source holds several entries; their conditions need not be identical. Equal entries are not always repeated.
Test system: not listed separately
Assay: pKa measurement of the cationic lipid (TNS fluorescence vs pH)
Type: physicochemical
Details: probe TNS (fluorescent probe), Table 4; pKa of the cationic lipid of formula (I)
Procedure: Unless indicated otherwise, all pKa's referred to herein were measured at standard temperature and pressure. Also, unless otherwise indicated, all references to pKa are references to pKa measured using the following technique. 2 mM solution of lipid in ethanol was prepared by weighing the lipid and then dissolving it in ethanol. 0.3 mM solution of fluorescent probe TNS in ethanol:methanol 9:1 was prepared by first making 3 mM solution of TNS in methanol and then diluting to 0.3 mM with ethanol. An aqueous buffer containing 200 mM sodium phosphate dibasic and 100 mM citric acid was prepared. […] Using the Hamilton Microlab Star high throughput liquid handler and Hamilton run control software Software, 7.5 uL of probe/lipid mix were added to 242.5 uL of buffer in a 1 mL 96 well plate (model NUNC 260252, […] Nunc International). This was done with all twelve buffers. After mixing in 1 mL 96 well plate, 100 uL of each probe/lipid/buffer mixture was transferred to a 250 uL black with clear bottom 96 well plate (model COSTAR 3904, Corning). The fluorescence measurements are carried out on the SpectraMax M5 spectrophotometer using software SoftMax pro 5.2 and following parameters: After the measurement, the background fluorescence value of an empty well on the 96 well plate was subtracted from each probe/lipid/buffer mixture. The fluorescence intensity values were then normalized to the value at lowest pH. The normalized fluorescence intensity vs. pH chart was then plotted in the Microsoft Excel software. The twelve points were connected with a smooth line. The point on the line at which the normalized fluorescence intensity was equal to 0.5 was found. […] The pKa determined using this method is precise to about 0.1 pKa units.

Compound	pKa
CCCCC/C=C\C/C=C\CCCCCCCC(=O)OCCCCCCOc1cc(CN(C)C)cc(OCCCCCCOC(=O)CCCCCCC/C=C\C/C=C\CCCCC)c1 [Example 45]	5.57
CCCCCCCCC(CCCCCCCC)CC(=O)OCCCOc1cc(CN(C)C)cc(OCCCOC(=O)CC(CCCCCCCC)CCCCCCCC)c1 [Example 56]	5.93
CCCCC/C=C\C/C=C\CCCCCCCC(=O)OCCOCCOc1cc(CN(CC)CC)cc(OCCOCCOC(=O)CCCCCCC/C=C\C/C=C\CCCCC)c1 [Example 58]	5.9
CCCCCCCCCCCC(=O)OCCCCCCOc1cc(CN(C)C)cc(OCCCCCCOC(=O)CCCCCCCCCCC)c1 [Example 59]	6.09
CCCCCCCCCOC(=O)CCCCCCC(=O)OCc1cc(COC(=O)CCCCCCC(=O)OCCCCCCCCC)cc(CN(C)C)c1 [Example 79]	6.48
CCCCCCCC(=O)OCCCCCC(=O)OCc1cc(COC(=O)CCCCCOC(=O)CCCCCCC)cc(CN(C)C)c1 [Example 85]	5.72
CCCCCCCCCCCCOC(=O)CCCCCOc1cc(CN(C)C)cc(OCCCCCC(=O)OCCCCCCCCCCCC)c1 [Example 90]	5.81
CCCCC/C=C\C/C=C\CCCCCCCC(=O)OCCCOc1cc(CN(C)C)cc(OCCCOC(=O)CC(CCCCCCCC)CCCCCCCC)c1 [Example 97]	5.82
CCCCCCCCC(CCCCCCCC)CC(=O)OCc1cc(COC(=O)CCCCCCCOC(=O)CCCCCCC)cc(CN(C)C)c1 [Example 101]	6.32
CCCCC/C=C\C/C=C\CCCCCCCCOc1cc(CN(C)C)cc(OCCCCOC(=O)CCC(COC(=O)CCCCC)COC(=O)CCCCC)c1C [Example 104]	6.02

Test system: respiratory syncytial virus F protein
Assay: Immunization studies: anti-RSV-F titers after liposome-delivered vA317 self-replicating RNA
Type: in vivo
Details: BALB/c mice; Course A = days 0 & 21; 2 weeks after first dose; liposomes with 0.1 μg vA317 replicon (naked control 1 μg)
Procedure: BALB/c were immunized with liposomes comprising DSPC, cholesterol, and various lipids of the invention (or, for comparison, the cationic lipid 1,2-dilinoleyloxy-N,N-dimethyl-3-aminopropane or ‘DLinDMA’). The liposomes encapsulated 0.1 μg of “vA317” self-replicating RNA replicon which encodes respiratory syncytial virus F protein (see WO2012/031043). […] Doses were given either on days 0 & 21 or days 0 & 42. Immune responses were assessed 2 weeks after each dose (2wp1, 2wp2), and in some cases also at 4 weeks after the second dose (4wp2). Four series of experiments were performed, each with its own naked control.

Compound	anti-RSV-F titer 2wp1 pool 1	anti-RSV-F titer 2wp1 pool 2
CCCCCCCC/C=C\CCCCCCCCOc1cc(OCCCCCCCC/C=C\CCCCCCCC)cc(C2OCC(CN3CCCC3)O2)c1 (centres unmarked) [Example 9]	1832	1352
CCCCC/C=C\C/C=C\CCCCCCCCOc1cc(COC(=O)CCCN(C)C)cc(OCCCCCCCC/C=C\C/C=C\CCCCC)c1 [Example 13]	495	620
CCCCC/C=C\C/C=C\CCCCCCCCOc1cc(C(=O)OCCCN(C)C)cc(OCCCCCCCC/C=C\C/C=C\CCCCC)n1 [Example 25]	1217	1883
CCCCC/C=C\C/C=C\CCCCCCCC(=O)OCc1cc(COC(=O)CCCCCCC/C=C\C/C=C\CCCCC)cc(COC(=O)CCN(C)C)c1 [Example 29]	2101	3584
CCCCC/C=C\C/C=C\CCCCCCCCNC(=O)c1cc(COC(=O)CCCN(C)C)cc(C(=O)NCCCCCCCC/C=C\C/C=C\CCCCC)c1 [Example 66]	75	75
CCCCC/C=C\C/C=C\CCCCCCCCOc1cc(COC(=O)OCCCN(C)C)cc(OCCCCCCCC/C=C\C/C=C\CCCCC)c1 [Example 68]	1031	494
CCCCC/C=C\C/C=C\CCCCCCCC(=O)OCc1cc(COC(=O)CCCCCCC/C=C\C/C=C\CCCCC)cc(COC(=O)OCCN(C)C)c1 [Example 70]	1416	3110
CCCCC/C=C\C/C=C\CCCCCCCCOc1cc(CCCOC(=O)CCN(C)C)cc(OCCCCCCCC/C=C\C/C=C\CCCCC)c1 [Example 81]	1779	1553

Same assay, conditions: BALB/c mice; Course A = days 0 & 21; 2 weeks after second dose; liposomes with 0.1 μg vA317 replicon (naked control 1 μg)

Compound	anti-RSV-F titer 2wp2 pool 1	anti-RSV-F titer 2wp2 pool 2
CCCCCCCC/C=C\CCCCCCCCOc1cc(OCCCCCCCC/C=C\CCCCCCCC)cc(C2OCC(CN3CCCC3)O2)c1 (centres unmarked) [Example 9]	29707	18788
CCCCC/C=C\C/C=C\CCCCCCCCOc1cc(COC(=O)CCCN(C)C)cc(OCCCCCCCC/C=C\C/C=C\CCCCC)c1 [Example 13]	7157	12316
CCCCC/C=C\C/C=C\CCCCCCCCOc1cc(C(=O)OCCCN(C)C)cc(OCCCCCCCC/C=C\C/C=C\CCCCC)n1 [Example 25]	1611	1156
CCCCC/C=C\C/C=C\CCCCCCCC(=O)OCc1cc(COC(=O)CCCCCCC/C=C\C/C=C\CCCCC)cc(COC(=O)CCN(C)C)c1 [Example 29]	12529	18669
CCCCC/C=C\C/C=C\CCCCCCCCNC(=O)c1cc(COC(=O)CCCN(C)C)cc(C(=O)NCCCCCCCC/C=C\C/C=C\CCCCC)c1 [Example 66]	75	75
CCCCC/C=C\C/C=C\CCCCCCCCOc1cc(COC(=O)OCCCN(C)C)cc(OCCCCCCCC/C=C\C/C=C\CCCCC)c1 [Example 68]	11315	7800
CCCCC/C=C\C/C=C\CCCCCCCC(=O)OCc1cc(COC(=O)CCCCCCC/C=C\C/C=C\CCCCC)cc(COC(=O)OCCN(C)C)c1 [Example 70]	31550	20124
CCCCC/C=C\C/C=C\CCCCCCCCOc1cc(CCCOC(=O)CCN(C)C)cc(OCCCCCCCC/C=C\C/C=C\CCCCC)c1 [Example 81]	24648	15304

Same assay, conditions: BALB/c mice; Course A = days 0 & 21; 4 weeks after second dose; liposomes with 0.1 μg vA317 replicon (naked control 1 μg)

Compound	anti-RSV-F titer 4wp2 pool 1	anti-RSV-F titer 4wp2 pool 2
CCCCC/C=C\C/C=C\CCCCCCCCOCC(CN(C)C)OCCCCCCCC/C=C\C/C=C\CCCCC (centres unmarked) [DLinDMA, 1,2-dilinoleyloxy-N,N-dimethyl-3-aminopropane, reference compound]	26504 and 50799	28008 and 35992
CCCCC/C=C\C/C=C\CCCCCCCCOc1cc(C(=O)OCCCN(C)C)cc(OCCCCCCCC/C=C\C/C=C\CCCCC)n1 [Example 25]	2850	1767
CCCCC/C=C\C/C=C\CCCCCCCC(=O)OCc1cc(COC(=O)CCCCCCC/C=C\C/C=C\CCCCC)cc(COC(=O)CCN(C)C)c1 [Example 29]	23930	37278
CCCCC/C=C\C/C=C\CCCCCCCCNC(=O)c1cc(COC(=O)CCCN(C)C)cc(C(=O)NCCCCCCCC/C=C\C/C=C\CCCCC)c1 [Example 66]	75	75
CCCCC/C=C\C/C=C\CCCCCCCCOc1cc(COC(=O)OCCCN(C)C)cc(OCCCCCCCC/C=C\C/C=C\CCCCC)c1 [Example 68]	12963	17734
CCCCC/C=C\C/C=C\CCCCCCCC(=O)OCc1cc(COC(=O)CCCCCCC/C=C\C/C=C\CCCCC)cc(COC(=O)OCCN(C)C)c1 [Example 70]	18779	18358
CCCCC/C=C\C/C=C\CCCCCCCCOc1cc(CCCOC(=O)CCN(C)C)cc(OCCCCCCCC/C=C\C/C=C\CCCCC)c1 [Example 81]	41921	34684

Same assay, conditions: BALB/c mice; Course B = days 0 & 42; 2 weeks after first dose; liposomes with 0.1 μg vA317 replicon (naked control 1 μg)

Compound	anti-RSV-F titer 2wp1 pool 1	anti-RSV-F titer 2wp1 pool 2
CCCCC/C=C\C/C=C\CCCCCCCCOCC(CN(C)C)OCCCCCCCC/C=C\C/C=C\CCCCC (centres unmarked) [DLinDMA, 1,2-dilinoleyloxy-N,N-dimethyl-3-aminopropane, reference compound]	13	4
CCCCCCCC/C=C\CCCCCCCCOc1cc(OCCCCCCCC/C=C\CCCCCCCC)cc(C2OCC(COC(=O)CN(C)C)O2)c1 (centres unmarked) [Example 12]	88	128

Same assay, conditions: BALB/c mice; Course B = days 0 & 42; 2 weeks after second dose; liposomes with 0.1 μg vA317 replicon (naked control 1 μg)

Compound	anti-RSV-F titer 2wp2 pool 1	anti-RSV-F titer 2wp2 pool 2
CCCCC/C=C\C/C=C\CCCCCCCCOCC(CN(C)C)OCCCCCCCC/C=C\C/C=C\CCCCC (centres unmarked) [DLinDMA, 1,2-dilinoleyloxy-N,N-dimethyl-3-aminopropane, reference compound]	18290	5538
CCCCCCCC/C=C\CCCCCCCCOc1cc(OCCCCCCCC/C=C\CCCCCCCC)cc(C2OCC(COC(=O)CN(C)C)O2)c1 (centres unmarked) [Example 12]	4550	4828

Same assay, conditions: BALB/c mice; Course B = days 0 & 42; 4 weeks after second dose; liposomes with 0.1 μg vA317 replicon (naked control 1 μg)

Compound	anti-RSV-F titer 4wp2 pool 1	anti-RSV-F titer 4wp2 pool 2
CCCCC/C=C\C/C=C\CCCCCCCCOCC(CN(C)C)OCCCCCCCC/C=C\C/C=C\CCCCC (centres unmarked) [DLinDMA, 1,2-dilinoleyloxy-N,N-dimethyl-3-aminopropane, reference compound]	13936	7020
CCCCCCCC/C=C\CCCCCCCCOc1cc(OCCCCCCCC/C=C\CCCCCCCC)cc(C2OCC(COC(=O)CN(C)C)O2)c1 (centres unmarked) [Example 12]	4787	3972
